What all share (type): in vivo
Experiment [1] has as its system AMARE (Amaranthus retroflexus). As to the kind of experiment: Pot trial Flufenacet+Dimethenamid-p+Mesotrione, post-emergence. To be noted: post-emergence (2-3 leaves), g a.i./ha: Flufenacet 75, MST 60, DMTP 302. The source says: (§1) A synergistic effect exists whenever the action of an active ingredient combination is greater than the sum of the actions of the individual components. In the field of agriculture, it is often understood that the term “synergy” is as defined by Colby S. R. in an article entitled “Calculation of the synergistic and antagonistic responses of herbicide combinations” published in the journal Weeds, 1967, 15, p. 20-22. The action expected for a given combination of two active components can be calculated according to Colby as follows: […]
(§2) in which E represents the expected effect, e.g. percentage of pest control, for the combination of the active ingredients at defined doses (for example equal to x and y respectively), A is the effect, e.g. percentage of pest control, observed for the first compound or mixture of compounds at a defined dose (equal to x), B is the effect, e.g. percentage of pest control, observed for the second compound or group of compounds at a defined dose (equal to y).
(§3) Here, efficacy or percent inhibition is determined in %. 0% means efficacy that corresponds to the Control, i.e., as if no treatment had been applied. A percent inhibition of 100% means that complete control is observed. When the percent control observed for the combination (E0) is greater than E, there is a synergistic effect. […]

For experiment [2], the system named is ECHCG (Echinochloa crus-galli). Described as above. As to conditions: post-emergence (2-3 leaves), g a.i./ha: Flufenacet 75, MST 60, DMTP 302.
Source text: as §1, §2, §3

The subject of experiment [3] is ECHCG (Echinochloa crus-galli). As to the kind of experiment: Pot trial Flufenacet+Dimethenamid-p+Thiencarbazone, first trial, pre-emergence. To be noted: g a.i./ha: Flufenacet 12.2 (12.5 in mix), TCM 3, DMTP 50.
Source text: as §1, §2, §3

For experiment [4], the system named is SETVE (Setaria verticillate). The experiment is described as above. To be noted: g a.i./ha: Flufenacet 12.2 (12.5 in mix), TCM 3, DMTP 50.
Source text: as §1, §2, §3

Experiment [5] concerns ECHCG (Echinochloa crus-galli). In words: Pot trial Flufenacet+Dimethenamid-p+Thiencarbazone, second trial, post-emergence. As to conditions: post-emergence (2-3 leaves), g a.i./ha: Flufenacet 12.2 (12.5 in mix), TCM 3, DMTP 50.
Source text: as §1, §2, §3

Experiment [6] relates to AMARE (Amaranthus retroflexus). In words: Pot trial Flufenacet+Dimethenamid-p+Thiencarbazone, third trial, post-emergence. As to conditions: post-emergence (2-3 leaves), g a.i./ha: Flufenacet 75, TCM 18, DMTP 302.
Source text: as §1, §2, §3

Experiment [7] deals with CHEAL (Chenopodium album). Described as above. To be noted: post-emergence (2-3 leaves), g a.i./ha: Flufenacet 75, TCM 18, DMTP 302.
Source text: as §1, §2, §3

For experiment [8], the system named is AMAPA (Amaranthus palmeri). As to the kind of experiment: Pot trial Dimethenamid-P+S-Metolachlor+Mesotrione, post-emergence.
Source text: as §1, §2, §3

Experiment [9] has as its system AMAPA (Amaranthus palmeri). In words: Pot trial Dimethenamid-P+Pethoxamid+Mesotrione, third trial, pre-emergence. To be noted: g a.i./ha: Petoxamid 360, MST 40, DMTP 200.
Source text: as §1, §2, §3

Experiment [10] deals with SETVI (Setaria viridis). In words: Pot trial Dimethenamid-P+Thiencarbazone+Pethoxamid, post-emergence.
Source text: as §1, §2
(§4) Here, efficacy or percent inhibition is determined in %. 0% means efficacy that corresponds to the Control, i.e., as if no treatment had been applied. A percent inhibition of 100% means that complete control is observed. When the percent control observed for the combination (E0) is greater than E, there is a synergistic effect. When the percent control observed for the combination (E0) is equal to E, there is an additive effect and wherein the percent control observed for the combination (E0) is lower than E, there is an antagonistic effect.
(§5) First trial: Tank mixes were prepared by combining the formulation with water in order to achieve the desired concentration of each active ingredient, as outlined in Table 19. For this study, individual pots were utilized for sowing the weeds, with each pot containing one weed species, in this case SOLNI (Solanum nigrum) or SETVI (Setaria viridis). Treatments were then applied to each pot at the post-emergence stage of the weeds, ensuring consistent application timing across all treatments. Subsequently, a comprehensive assessment was conducted seven days after application (7DAA) to evaluate the efficacy of each treatment on SOLNI or SETVI.
(§6) Second trial: Tank mixes were prepared by combining the formulation with water in order to achieve the desired concentration of each active ingredient, as outlined in Table 21. For this study, individual pots were utilized for sowing the weeds, with each pot containing one weed species, in this case SOLNI (Solanum nigrum) or SETVI (Setaria viridis). Treatments were then applied to each pot at the post-emergence stage of the weeds, ensuring consistent application timing across all treatments. […]

Experiment [11] relates to SOLNI (Solanum nigrum). The description is as above.
Source text: as §1, §2, §4, §5, §6

The test system of experiment [12] is SOLNI (Solanum nigrum). As to the kind of experiment: Pot trial Dimethenamid-P+Tembotrione+Pethoxamid (Example 6), post-emergence.
Source text: as §1, §2, §3

Experiment [13] has as its system AMAPA (Amaranthus palmeri). As to the kind of experiment: Pot trial Dimethenamid-P+Pethoxamid+Mesotrione, first and second trial, post-emergence.
Source text: as §1, §2, §3

Experiment [14] relates to SETVI (Setaria viridis). In words: Pot trial Dimethenamid-P+Tembotrione+Pethoxamid (Example 7), post-emergence.
Source text: as §1, §2, §3

The mark [15] stands for this setting: first trial, g a.i./ha: PTX 360, TCM/DMTP 159 (one cell).
Where [16] appears, read: second trial, g a.i./ha: PTX 720, TCM/DMTP 318 (one cell).
Where [17] appears, read: second trial, g a.i./ha: PTX 720, TMB 63, DMTP 604.8.

For the compound `CC(C)N(C(=O)COc1nnc(C(F)(F)F)s1)c1ccc(F)cc1` [Flufenacet], the “efficacy 8DAA AMARE %” value in [1] and in experiment [6] was 0% each time. In addition, the “efficacy 8DAA ECHCG %” value in [2], in experiment [3] and in experiment [5] was 0% throughout. Moreover, the “efficacy 8DAA SETVE %” value in experiment [4] was 0%. In addition, the “efficacy 8DAA CHEAL %” value in experiment [7] was found to be 0%.

On to `CCc1cccc(C)c1N(C(=O)CCl)[C@@H](C)COC` [S-metolachlor], for which the “efficacy 18DAA AMAPA %” value in [8] (first trial, g a.i./ha: S-MOc 144, MST 20, DMTP 100) is recorded as 0.00%; in experiment [8] (second trial, g a.i./ha: S-MOc 288, MST 40, DMTP 200), 0.00%.

On to `CCOCCN(C(=O)CCl)C(=C(C)C)c1ccccc1` [Pethoxamid], for which the “efficacy 21DAA AMAPA %” value in experiment [9] turned out to be 52.50%; in experiment [13] (first trial, g a.i./ha: Petoxamid 720, MST 60, DMTP 300), 6.25%; in [13] (second trial, g a.i./ha: Petoxamid 120, MST 20, DMTP 100), 0%. In addition, the “efficacy 7DAA SETVI %” value in the experiment on SETVI (Setaria viridis) [10] (setting [15]) amounted to 2.50%; in the experiment with SETVI (Setaria viridis) [10] (setting [16]), 0.00%; with SETVI (Setaria viridis) [14] (first trial, g a.i./ha: PTX 360, TMB 10.5, DMTP 100.8) it was 2.50%; in the experiment on SETVI (Setaria viridis) [14] (setting [17]), 0.00%. Besides, the “efficacy 7DAA SOLNI %” value amounted to 0.00% in the experiment on SOLNI (Solanum nigrum) [11] (setting [15]); 1.70% in the experiment with SOLNI (Solanum nigrum) [11] (setting [16]); 0.00% in the experiment on SOLNI (Solanum nigrum) [12] (first trial, g a.i./ha: PTX 120, TMB 10.5, DMTP 100); 1.70% with SOLNI (Solanum nigrum) [12] (setting [17]).

The record behind these values is patent US20250338842A1, “NOVEL MIXTURES FOR CROP PROTECTION” (Adama Agan LTD., priority 2023, published 2025).
